Patent US20260034112A1, “MULTI-CYCLIC IRAK1 AND IRAK4 INHIBITING COMPOUNDS AND USES THEREOF” (CHILDREN'S HOSPITAL MEDICAL CENTER, priority 2022, published 2026)
Like-named read-outs stand apart in the source and are kept apart here.

Tested on: THP1 cells
Assay type: cell-based, human
Details: PF-06650833 vs DMSO in THP1 cells

## CC[C@@H]1[C@H](F)C(=O)N[C@@H]1COc1nccc2cc(C(N)=O)c(OC)cc12 [PF-06650833, Zimlovisertib]
Gene ACVR1C
  Log(FC): −0.6723
Gene ADPGK-AS1
  Log(FC): −0.6683
Gene ALDH1A3
  Log(FC): −0.6705
Gene APOBR
  Log(FC): −0.6497
Gene APOC1
  Log(FC): −0.67
Gene AQP3
  Log(FC): −0.6432
Gene ARHGAP25
  Log(FC): −0.5895
Gene ARRDC3-AS1
  Log(FC): −0.5996
Gene ASGR2
  Log(FC): −0.631
Gene BMP8B
  Log(FC): −0.6206
Gene BPI
  Log(FC): −0.6416
Gene C1QL4
  Log(FC): −0.5987
Gene C1orf226
  Log(FC): −0.604
Gene C1orf228
  Log(FC): −0.634
Gene C3
  Log(FC): −0.6607
Gene C19orf35
  Log(FC): −0.675
Gene C19orf59
  Log(FC): −0.6476
Gene C20orf197
  Log(FC): −0.6914
Gene CACNA2D3
  Log(FC): −0.6049
Gene CALHM2
  Log(FC): −0.6575
Gene CCDC78
  Log(FC): −0.6022
Gene CCL23
  Log(FC): −0.6739
Gene CD300LB
  Log(FC): −0.5972
Gene CENPH
  Log(FC): −0.6701
Gene DGKG
  Log(FC): −0.6202
Gene EVI2B
  Log(FC): −0.6362
Gene FAM111B
  Log(FC): −0.6646
Gene FAM161B
  Log(FC): −0.6003
Gene FAS
  Log(FC): −0.6791
Gene FAT4
  Log(FC): −0.6913
Gene FMO5
  Log(FC): −0.639
Gene FOS
  Log(FC): −0.5974
Gene FOSL1
  Log(FC): −0.6175
Gene GAPT
  Log(FC): −0.6025
Gene GIPC3
  Log(FC): −0.6076
Gene GNG12
  Log(FC): −0.6632
Gene GPR35
  Log(FC): −0.6621
Gene HSPA1L
  Log(FC): −0.6007
Gene HYDIN2
  Log(FC): −0.6113
Gene IL1R1
  Log(FC): −0.6855
Gene IL16
  Log(FC): −0.667
Gene IQGAP2
  Log(FC): −0.5919
Gene KCNA3
  Log(FC): −0.6759
Gene KIF21B
  Log(FC): −0.6912
Gene KLHL30
  Log(FC): −0.6632
Gene KREMEN2
  Log(FC): −0.6258
Gene LDOC1
  Log(FC): −0.6494
Gene LHFPL2
  Log(FC): −0.6019
Gene LINC01094
  Log(FC): −0.6762
Gene LOC81691
  Log(FC): −0.6095
Gene LOC339862
  Log(FC): −0.6552
Gene LOC100093631
  Log(FC): −0.631
Gene LOC100507642
  Log(FC): −0.6508
Gene LOC101927841
  Log(FC): −0.6312
Gene LOC101929119
  Log(FC): −0.6138
Gene LOC101929545
  Log(FC): −0.5904
Gene LOC102723883
  Log(FC): −0.5967
Gene MPEG1
  Log(FC): −0.6879
Gene MPO
  Log(FC): −0.6316
Gene MPZ
  Log(FC): −0.5945
Gene MTMR11
  Log(FC): −0.6705
Gene MUC19
  Log(FC): −0.6358
Gene NCALD
  Log(FC): −0.6
Gene NHLRC3
  Log(FC): −0.66
Gene NHSL2
  Log(FC): −0.639
Gene NMNAT2
  Log(FC): −0.6786
Gene PAX8
  Log(FC): −0.674
Gene PCED1B-AS1
  Log(FC): −0.6355
Gene PDCD4
  Log(FC): −0.6069
Gene PODNL1
  Log(FC): −0.6661
Gene PRTN3
  Log(FC): −0.6776
Gene PSTPIP1
  Log(FC): −0.6238
Gene RGS3
  Log(FC): −0.6231
Gene RPSAP9
  Log(FC): −0.6104
Gene RSPO1
  Log(FC): −0.6269
Gene S1PR3
  Log(FC): −0.6476
Gene S1PR5
  Log(FC): −0.6503
Gene SCIMP
  Log(FC): −0.6308
Gene SERPINA1
  Log(FC): −0.615
Gene SETBP1
  Log(FC): −0.6709
Gene SIM1
  Log(FC): −0.6107
Gene SLC2A3
  Log(FC): −0.6056
Gene SLC6A11
  Log(FC): −0.6327
Gene SLC9A7
  Log(FC): −0.6539
Gene SNORA73A
  Log(FC): −0.6228
Gene SNX10
  Log(FC): −0.6217
Gene SWT1
  Log(FC): −0.6012
Gene SYN3
  Log(FC): −0.6041
Gene SYTL1
  Log(FC): −0.5922
Gene TACC2
  Log(FC): −0.6004
Gene THBS4
  Log(FC): −0.6785
Gene TLR1
  Log(FC): −0.6365
Gene TMEM45A
  Log(FC): −0.5913
Gene TMEM238
  Log(FC): −0.6139
Gene TNFSF10
  Log(FC): −0.6794
Gene TNS1
  Log(FC): −0.6915
Gene TREM1
  Log(FC): −0.6699
Gene TRIM72
  Log(FC): −0.6733
Gene ZNF630
  Log(FC): −0.6307
Gene ZNF836
  Log(FC): −0.606
